Values joined by “and” are separate entries in the source; they are usually repeats but may differ in a detail not shown here. Equal values may be shown once.
Key:
Format in all cases: in vivo
Corn = test: Multi-crop greenhouse test, herbicide POE (Examples 62-64; Tables 61-63); conditions: COUNTER 15G and BEACON; Example 62
Method: Tests according to this invention in various crops indicate widespread application of the invention. In Examples 62-66 below are described tests with a variety of herbicides contacted with COUNTER® 15G in the presence and absence of MON-7400 (Antidote No. 12); MON-13900 (No. 1); MON-4660 (No. 16) and flurazole (No. 16). Those tests were conducted according to Procedures IV or V described above and illustrated further in other foregoing examples. Plants used in all tests were, for crops (as abbreviated in parentheses); cotton (COTT); soybean (SOBE); CORN, grain sorghum (GRSO); wheat (WHEA) and RICE, and the weeds giant foxtail (GIFT) and velvetleaf (VELE). The data in the tables below represent averages of two replications.
In this test the crops and weeds were planted 1.3 cm deep in 13.7 cm X 27.7 cm pans containing Dupo silt loam soil. The test safeners were applied in acetone solution and COUNTER 15G as dry granules to soil cover layers and incorporated by shaking in a bag. Treated cover layers were placed on seeded pans which were transferred to greenhouse benches and subirrigated. Herbicide was applied POE six (6) days after PPI initiation and observations of plant injury made ten (10) days later; results are shown in Table 61. The herbicide used in this example was BEACON (No. 8).
The test procedure described in Example 62 was repeated using ACCENT® (Herbicide No. 7) as the herbicide; the biocide and safeners were the same.

Giant foxtail (GIFT) [1] = test: Greenhouse test Procedure VI (Examples 59-61; Tables 58-60); conditions: Antidote + Biocide No. 1 in furrow
Excerpt: This procedure describes interaction among herbicide, biocide and antidote when the herbicide is incorporated in a soil cover layer and the biocide and the antidote are applied in a soil furrow containing crop seed before emergence of the crop. The soil and seeding depth were described in Procedure IV. A first container was designated as an untreated control, a second container was designated as a herbicide control, a third container was designated as a herbicide + biocide control and a fourth container as a herbicide + biocide + antidote test container. The biocide and antidote were formulated as granules. The biocide was applied to the soil furrows of the third and fourth containers at an application rate of 1.1 mg of active compound per cm of row. The antidote was applied to the soil furrow of the fourth container at an application rate of 0.37 mg of active compound per cm of row. A measured amount of the herbicide dispersed or dissolved in acetone was applied to a measured quantity of soil. The quantity of soil treated with the herbicide was thoroughly mixed to incorporate the herbicide. Samples of this soil were used to cover the seed beds of the second, third and fourth containers. For each test series, the seed bed of the first container was likewise covered by a soil layer not treated with herbicide and without biocide or antidote in the soil furrow.
The containers were then placed on a bench in a greenhouse. Watering was by subirrigation plus overhead irrigation after the plants emerged. All treatments were run in duplicate. Plant response was observed according to Procedure IV. Variations in this procedure will be noted in the examples.
The procedure used in this example involved the PPI application of biocide and safener as described in general Procedure VI above. The "primary" herbicide in this test was MON-12000 (Herbi-cide No. 1) in admixture with other herbicides designated as "co-herbicides", which included LASSO® (co-herbicide B); DUAL® (C); acetochlor (A); EPTAM® (D); butylate (E) and PURSUIT® (K).
The in-furrow treatments with blended COUNTER 15G and antidote mixtures was as described in above examples. MON-12000 and the co-herbicides were formulated in acetone and applied as tank mixtures, incorporated into Dupo silt loam soil with a rotary drum mixer. Subsamples were used to cover seeded and in-furrow treated 10.2 cm pots. Pots were placed on greenhouse benches and subirrigated. Plant responses were observed thirteen days after PPI initiation. Test results (average of two replications) are shown in Table 58, wherein giant foxtail (GIFT) was used in place of shattercane.
This test was conducted in the same manner used in Example 59. All biocide and antidote components were the same and in these tests XRD-498 (Herbicide No. 21) was the prime herbicide. Co-herbicides are shown in Table 59 together with test data.
In one other test conducted as described in the preceding examples in this series of tests, the herbicide PURSUIT® was used as the primary herbicide (in the context of this invention) together with the same insecticide and safeners as above and the co-herbicides shown in Table 60, together with test results.

grain sorghum (GRSO) = test: Multi-crop greenhouse test, soil-applied (Examples 65, 66; Tables 64, 65)
Method in brief: (§1)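 Dupo silt loam pans, seeds 1.3 cm deep; safener (acetone) + COUNTER 15G granules mixed into cover soil; subirrigated. MON-12000 run: herbicide POE day 6, light overhead irrigation days 4–7, injury scored 10 d later. XRD-498 run: all three components applied together to covers. Mean of 2 reps.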

soybean (SOBE) = test: as above
Method in brief: as §1

wheat (WHEA) = test: as above
Method in brief: as §1

Giant foxtail (GIFT) [2] = test: whole plant or invertebrate
[3] = Table 64, Herb. No. 1 0.018 Kg/Ha + Biocide No. 1 8.96 Kg/Ha + Antidote 4.48 Kg/Ha
[4] = Table 64, Herb. No. 1 0.07 Kg/Ha + Biocide No. 1 8.96 Kg/Ha + Antidote 4.48 Kg/Ha
[5] = Table 64, Herb. No. 1 0.28 Kg/Ha + Biocide No. 1 8.96 Kg/Ha + Antidote 4.48 Kg/Ha
[6] = Table 65, Herb. No. 1 0.018 Kg/Ha + Biocide No. 1 8.96 Kg/Ha + Antidote 4.48 Kg/Ha
[7] = Table 65, Herb. No. 1 0.07 Kg/Ha + Biocide No. 1 8.96 Kg/Ha + Antidote 4.48 Kg/Ha
[8] = Table 65, Herb. No. 1 0.28 Kg/Ha + Biocide No. 1 8.96 Kg/Ha + Antidote 4.48 Kg/Ha

## COC(=O)COC(c1ccccc1)c1ccccc1 [Antidote No. 12, Acetic acid, (diphenylmethoxy)-, methyl ester]
Corn
  corn injury: effectively reduced

## O=C(OCc1ccccc1)c1sc(Cl)nc1C(F)(F)F [Antidote No. 7, 5-Thiazolecarboxylic acid, 2-chloro-4-(trifluoromethyl)-, (phenylmethyl) ester]
Corn
  corn injury: effectively reduced

## CC1(C)OC(c2ccco2)CN1C(=O)C(Cl)Cl (centres unmarked) [compound 1]
Giant foxtail (GIFT) [1]; Herbicide No. 6 0.14 Kg/Ha PPI
  % Inhibition GIFT: 65%
Giant foxtail (GIFT) [1]; Herbicide No. 11 0.0044 Kg/Ha PPI
  % Inhibition GIFT: 0%
Giant foxtail (GIFT) [1]; Herbicide No. 12 0.0044 Kg/Ha PPI
  % Inhibition GIFT: 0%
Giant foxtail (GIFT) [1]; Herbicide No. 13 0.0011 Kg/Ha PPI
  % Inhibition GIFT: 25%
Giant foxtail (GIFT) [1]; Herbicide No. 13 0.0022 Kg/Ha PPI
  % Inhibition GIFT: 35%
Giant foxtail (GIFT) [1]; Herbicide No. 14 0.07 Kg/Ha PPI
  % Inhibition GIFT: 0%
Giant foxtail (GIFT) [1]; Herbicide No. 16 0.07 Kg/Ha PPI, 13 days
  % Inhibition GIFT: 30%
Giant foxtail (GIFT) [1]; Herbicide No. 17 0.14 Kg/Ha PPI, 13 days
  % Inhibition GIFT: 75%
Giant foxtail (GIFT) [1]; Herbicide No. 18 0.04 Kg/Ha PPI, 13 days
  % Inhibition GIFT: 55%
Giant foxtail (GIFT) [1]; Herbicide No. 20 1.12 Kg/Ha PPI, 13 days
  % Inhibition GIFT: 20%
Giant foxtail (GIFT) [1]; Herbicide No. 22 0.28 Kg/Ha PPI, 13 days
  % Inhibition GIFT: 25%
Giant foxtail (GIFT) [1]; Herbicide No. 24 0.14 Kg/Ha PPI, 13 days
  % Inhibition GIFT: 10%
Giant foxtail (GIFT) [1]; Herbicide No. 25 0.14 Kg/Ha PPI, 13 days
  % Inhibition GIFT: 30%
Giant foxtail (GIFT) [1]; Herbicide No. 26 2.24 Kg/Ha PPI, 13 days
  % Inhibition GIFT: 0%
Giant foxtail (GIFT) [1]; Herbicide No. 28 0.04 Kg/Ha PPI, 13 days
  % Inhibition GIFT: 50%
Grain sorghum (GRSO); [3]
  % Inhibition GRSO: 0%
Grain sorghum (GRSO); [4]
  % Inhibition GRSO: 0%
Grain sorghum (GRSO); [5]
  % Inhibition GRSO: 0%
Grain sorghum (GRSO); [6]
  % Inhibition GRSO: 0%
Grain sorghum (GRSO); [7]
  % Inhibition GRSO: 25%
Grain sorghum (GRSO); [8]
  % Inhibition GRSO: 65%
Soybean (SOBE); [3]
  % Inhibition SOBE: 35%
Soybean (SOBE); [4]
  % Inhibition SOBE: 75%
Soybean (SOBE); [5]
  % Inhibition SOBE: 70%
Soybean (SOBE); [6]
  % Inhibition SOBE: 0%
Soybean (SOBE); [7]
  % Inhibition SOBE: 0%
Soybean (SOBE); [8]
  % Inhibition SOBE: 5%
Wheat (WHEA); [3]
  % Inhibition WHEA: 0%
Wheat (WHEA); [4]
  % Inhibition WHEA: 0%
Wheat (WHEA); [5]
  % Inhibition WHEA: 0%
Wheat (WHEA); [6]
  % Inhibition WHEA: 10%
Wheat (WHEA); [7]
  % Inhibition WHEA: 25%
Wheat (WHEA); [8]
  % Inhibition WHEA: 70%
Giant foxtail (GIFT) [2]; […], PPI, 13 days after PPI (Table 31)
  % Inhibition GIFT: 70%
Giant foxtail (GIFT) [2]; in vivo
  % Inhibition GIFT: 45% and 60% and 85% and 65% and 90% and 55%

## CC1(C)OC(c2ccco2)CN1C(=O)C(Cl)Cl (centres unmarked) [Antidote No. 1, Oxazolidine, 3-(dichloroacetyl)-2,2-dimethyl-5-(2-furanyl)-]
Corn
  corn injury: effectively reduced

Source: patent EP0565593B1, “REDUCING PESTICIDAL INTERACTIONS IN CROPS” (priority 1990, dated 1992)
